Assays:
[1] = test system: conditioned avoidance responding (lever-response); test: Conditioned avoidance, lever-response (L-R); format: in vivo, male CD rats; conditions: Rattus norvegicus, po; 95% confidence interval in brackets; read-out: L-R AB50 (50% block in avoidance responding)
Excerpt: (§1) The antipsychotic properties of the compounds of this invention were established by standard pharmacologically accepted procedures involving two conditioned avoidance studies in which trained male CD rats (Charles River), 400-450 gm body weight are exposed to a fifteen second warning tone (conditioned stimulus) continued for an additional fifteen seconds accompanied by electric shock. The rat can avoid the electric shock by depression of a response lever (lever-response) or in a different study by jumping to an exposed shelf (shelf-jump response). In either test situation, a response during the initial warning tone is considered an avoidance response while a response during shock delivery is considered an escape response. The avoidance response is determined and expressed as a percentage of total trials from an appropriate number of trials and a 50% block in avoidance responding (AB50) is obtained from a dose-effect regression line. The shelf-jump response test procedure follows that of Herman et al., Comm. in Psychopharm., 3, pp. 165-171 (1979).
(§2) The following examples illustrate the production of compounds of this invention. After each example the pharmacological evaluation for the compound produced is presented. The conditioned avoidance tests are reported as relative activity for the shelf-jump (S-J) at the intraperitoneal (i.p.) dose administered in mg/kg and the AB50 is presented for the lever-response (L-R) test at the oral (p.o.) dose in mg/kg. The inhibition constant is reported for limbic D-2 binding expressed in nM concentration. Similarly, the inhibition constant for cortical 5-HT2 binding is reported as the inhibition constant in nM concentration.

[2] = test system: conditioned avoidance responding (shelf-jump); test: Conditioned avoidance, shelf-jump response (S-J); format: in vivo, male CD rats
Excerpt: as §1, §2

[3] = target: T1, limbic D-2 (dopamine receptor) (Rattus norvegicus, UniProt P61169); test: Limbic D-2 binding (3H-spiroperidol, homogenized limbic brain tissue); conditions: 95% confidence interval in brackets, read-out: Limbic D-2 inhibition constant (Ki)
T1 construct: from tissue; host or cells: homogenized limbic brain tissue
T1 sequence (P61169 whole entry): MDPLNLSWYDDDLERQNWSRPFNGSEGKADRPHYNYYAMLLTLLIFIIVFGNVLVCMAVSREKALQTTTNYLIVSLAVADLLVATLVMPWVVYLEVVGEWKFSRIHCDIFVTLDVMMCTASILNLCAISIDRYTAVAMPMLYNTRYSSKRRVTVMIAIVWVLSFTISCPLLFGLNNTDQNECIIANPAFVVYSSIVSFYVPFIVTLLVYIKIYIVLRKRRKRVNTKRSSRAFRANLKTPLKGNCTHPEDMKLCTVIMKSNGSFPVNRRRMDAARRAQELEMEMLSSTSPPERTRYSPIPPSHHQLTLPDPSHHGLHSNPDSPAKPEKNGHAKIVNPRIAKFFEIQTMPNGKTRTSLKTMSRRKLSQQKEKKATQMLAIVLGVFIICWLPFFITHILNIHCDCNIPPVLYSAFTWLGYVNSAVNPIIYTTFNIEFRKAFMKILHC
Method: Binding in the presence of the test compound is expressed as a percent of specific binding (total binding less binding in the presence of 1 μM (+)butaclamol). An inhibition constant (Ki) is calculated for each test compound to catagorize its limbic D-2 binding potential. The larger the number, the less potential for dopamine receptor binding and attendant side effects from administration of the antipsychotic agent.
as §2

serotonin-2 receptors = target: T2, serotonin-2 receptors (Rattus norvegicus, UniProt P14842); test: Cortical 5-HT2 binding (brain cortical tissue); conditions: for Ki: 95% confidence interval in brackets, read-out: Cortical 5-HT2 inhibition constant (Ki)
T2 construct: In an analogous test procedure employing brain cortical tissue; from tissue; host or cells: brain cortical tissue
T2 sequence (P14842 whole entry): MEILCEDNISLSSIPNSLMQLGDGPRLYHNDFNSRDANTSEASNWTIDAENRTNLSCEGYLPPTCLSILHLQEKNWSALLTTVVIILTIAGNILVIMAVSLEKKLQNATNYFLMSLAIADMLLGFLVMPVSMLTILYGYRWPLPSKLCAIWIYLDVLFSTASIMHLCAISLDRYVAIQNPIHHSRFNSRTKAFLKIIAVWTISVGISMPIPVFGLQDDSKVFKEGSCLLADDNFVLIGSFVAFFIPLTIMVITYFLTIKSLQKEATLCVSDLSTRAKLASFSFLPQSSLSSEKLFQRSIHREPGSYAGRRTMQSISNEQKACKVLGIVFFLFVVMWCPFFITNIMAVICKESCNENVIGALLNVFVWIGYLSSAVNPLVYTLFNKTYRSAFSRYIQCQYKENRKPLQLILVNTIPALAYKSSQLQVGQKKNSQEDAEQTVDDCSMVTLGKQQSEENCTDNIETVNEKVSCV
Excerpt: as §2

SMILES	Ki [3] [nM]	Ki (serotonin-2 receptors) [nM]	ED50 [1] [mg/kg]	S-J relative activity ([2]; 20 mg/kg i.p.)	S-J relative activity ([2]; 40 mg/kg i.p.)	Ki at serotonin-2 receptors (serotonin-2 receptors; reference ligands)
c1ccc2nc(CCN3CCc4[nH]c5ccccc5c4C3)ccc2c1 [Example 5, 2,3,4,5-Tetrahydro-2-[2-(2-quinolinyl)ethyl]-1H-pyrido[4,3-b]indole]					Active	
c1ccc2c3c([nH]c2c1)CCN(CCCCc1ccncc1)C3 [Example 6, 2,3,4,5-Tetrahydro-2-[4-(4-pyridinyl)butyl]-1H-pyrido[4,3-b]indole]			> 20	Active	Active	
Clc1ccc2[nH]c3c(c2c1)CN(CCCCc1ccncc1)CC3 [Example 8, 8-Chloro-2,3,4,5-tetrahydro-2-[4-(4-pyridinyl)butyl]-1H-pyrido[4,3-b]indole]	106	60	36.1		Active	
Clc1ccc2[nH]c3c(c2c1)CN(CCc1ccccn1)CC3 [Example 9, 8-Chloro-2,3,4,5-tetrahydro-2-[2-(2-pyridinyl)ethyl]-1H-pyrido[4,3-b]indole]			> 40		Active	
Clc1ccc2[nH]c3c(c2c1)CN(CCCc1ccccn1)CC3 [Example 12, 8-Chloro-2,3,4,5-tetrahydro-2-[3-(2-pyridinyl)-propyl]-1H-pyrido[4,3-b]indole]	126	28	> 40		Active	
NCCc1ccc(O)c(O)c1 [dopamine, reference compound]						inactive

Now from value to compound, other results behind:

Ki [3] [nM]	Ki (serotonin-2 receptors) [nM]	SMILES	ED50 [1] [mg/kg]	S-J relative activity ([2]; 20 mg/kg i.p.)	S-J relative activity ([2]; 40 mg/kg i.p.)	Ki at serotonin-2 receptors (serotonin-2 receptors; reference ligands)
143	480	Fc1ccc2[nH]c3c(c2c1)CN(CCCCc1ccncc1)CC3 [Example 1, 8-Fluoro-2,3,4,5-tetrahydro-2-[4-(4-pyridinyl)butyl]-1H-pyrido[4,3-b]-indole]	15.1	Active		
26	173	Fc1ccc2[nH]c3c(c2c1)CN(CCc1ccccn1)CC3 [Example 2, 8-Fluoro-2,3,4,5-tetrahydro-2-[2-(2-pyridinyl)ethyl]-1H-pyrido[4,3-b]indole]	37.6	Active		
	211	Fc1ccc2[nH]c3c(c2c1)CN(CCc1ccncc1)CC3 [Example 3, 8-Fluoro-2,3,4,5-tetrahydro-2-[2-(4-pyridinyl)ethyl]1H-pyrido[4,3-b]indole]				
185		Fc1ccc2[nH]c3c(c2c1)CN(CCc1ccc2ccccc2n1)CC3 [Example 4, 8-Fluoro-2,3,4,5-tetrahydro-2-[2-(2-quinolinyl)ethyl]-1H-pyrido[4-3-b]indole]		Active		
	252	c1cncc(CCCN2CCc3[nH]c4ccccc4c3C2)c1 [Example 7, 2,3,4,5-Tetrahydro-2-[3-(3-pyridinyl)propyl]-1H-pyrido[4,3-b]indole]	33.1		Active	
82		Clc1ccc2[nH]c3c(c2c1)CN(CCc1ccc2ccccc2n1)CC3 [Example 10, 8-Chloro-2,3,4,5-tetrahydro-2-[2-(2-quinolinyl)ethyl]-1H-pyrido-[4,3-b]indole]	> 40		Active	
395	136	Fc1ccc2[nH]c3c(c2c1)CN(CCCc1cccnc1)CC3 [Example 11, 8-Fluoro-2,3,4,5-tetrahydro-2-[3-(3-pyridinyl)propyl]1H-pyrido[4,3-b]indole]	14.4	Active		
